Patent publication US20240247035A1, “STAPLED ANTIMICROBIAL PEPTIDES (STAMPS) AND USES THEREOF” (Lytica Therapeutics, Inc., priority 2021, published 2024)
Converted amounts (≈) assume the structure as drawn. Bridge positions count the residues as written; N and C are the ends. Square brackets hold non-standard residues; d marks the D form. Peptide text beside a SMILES is read from it. Phe(4-tBu) = CC(C)(C)c1ccc(C[C@H](N)C(=O)O)cc1; S5 = C=CCCC[C@](C)(N)C(=O)O

Tests used:
[1] = 90 minute cytotoxicity assay (LDH release), renal toxicity; type: cell-based; settings: human
Procedure: (§1) Cell culture: RPTEC were maintained in MEM media supplemented with growth factors. HEPG2 cell line was maintained in Eagle's Minimum Essential Medium (EMEM) supplemented with fetal bovine serum to a final concentration of 10%.
90 minute cytotoxicity assay: Cells were plated in a 96-well format, and after overnight incubation, media was replaced with fresh media. Serial dilutions of StAMPs from a 5 mg/mL water stock, or vehicle, were added to the cells in a final volume of 100 μl. After incubating at 37° C. for 90 min, 50 μl of cell culture media was transferred to a clear 96-well plate, incubated with 50 μl of lactate dehydrogenase (LDH) assay reagent for 10 min, and absorbance measured at 490 nm on a microplate reader.
(§2) Renal toxicity was measured after 90 minutes of incubation, while liver toxicity was measured after 48 hours of incubation with StAMPs. N/A=not tested.

[2] = 48 hours cytotoxicity assay (CellTiter-Glo), liver toxicity; type: cell-based; settings: human
Procedure: as §1
48 hours cytotoxicity assay: Cells were plated in a 96-well format, and after 4 hour incubation to allow attachment, serial dilutions of StAMPs from a 5 mg/mL water stock, or vehicle, were then added to the cells in a final volume of 100 μl. After incubating at 37° C. for 48 hours, 100 μl of CellTiter-Glo® reagent was added to the cells, and the plates were incubated 10 minutes at room temperature. Luminescence was then measured on a microplate reader.
as §2

## CC[C@H](C)[C@H](NC(=O)[C@H](CCCCN)NC(=O)[C@H](CCCCN)NC(=O)CNC(=O)[C@H](CCCCN)NC(=O)[C@]1(C)CCCC=CCCC[C@](C)(NC(=O)CN)C(=O)N[C@@H](Cc2ccccc2)C(=O)N[C@@H](CO)C(=O)N[C@@H](CCCCN)C(=O)N1)C(=O)N[C@@H](CCCCN)C(=O)N[C@@H](CC(N)=O)C(=O)N[C@@H](CC(C)C)C(=O)N[C@@]1(C)CCCC=CCCC[C@@](C)(C(=O)N[C@@H](CCCCN)C(=O)NCC(N)=O)NC(=O)CNC(=O)[C@H](CO)NC(=O)[C@H]([C@@H](C)CC)NC1=O [compound 1] (H-G[S5]FSK[S5]KGKKIKNL[S5]ISG[S5]KG-NH2; staple 2-6, 15-19)
[1]
  IC50 at 90 min: 48 µg/mL (≈ 21 µM)
[2]
  IC50 at 48 hours: 47 µg/mL (≈ 20.5 µM)

## CC[C@H](C)[C@H](NC(=O)[C@H](CCCCN)NC(=O)[C@H](CCCCN)NC(=O)CNC(=O)[C@H](CCCCN)NC(=O)[C@]1(C)CCCC=CCCC[C@](C)(NC(=O)CN)C(=O)N[C@@H](CCCCN)C(=O)N[C@@H](CO)C(=O)N[C@@H](CCCCN)C(=O)N1)C(=O)N[C@@H](CCCCN)C(=O)N[C@@H](CC(N)=O)C(=O)N[C@@H](CC(C)C)C(=O)N[C@@]1(C)CCCC=CCCC[C@@](C)(C(=O)N[C@@H](CCCCN)C(=O)NCC(N)=O)NC(=O)CNC(=O)[C@H](CO)NC(=O)[C@H]([C@@H](C)CC)NC1=O [compound 2] (H-G[S5]KSK[S5]KGKKIKNL[S5]ISG[S5]KG-NH2; staple 2-6, 15-19)
[1]
  IC50 at 90 min: 203 µg/mL (≈ 89.4 µM)
[2]
  IC50 at 48 hours: 109 µg/mL (≈ 48 µM)

## CC[C@H](C)[C@H](NC(=O)[C@H](CCCCN)NC(=O)[C@H](CCCCN)NC(=O)CNC(=O)[C@H](CCCCN)NC(=O)[C@]1(C)CCCC=CCCC[C@](C)(NC(=O)CN)C(=O)N[C@@H](Cc2ccccc2)C(=O)N[C@@H](CO)C(=O)N[C@@H](CCCCN)C(=O)N1)C(=O)N[C@@H](CCCCN)C(=O)N[C@@H](CC(N)=O)C(=O)N[C@@H](CC(C)C)C(=O)N[C@@]1(C)CCCC=CCCC[C@@](C)(C(=O)N[C@@H](CCCCN)C(=O)NCC(N)=O)NC(=O)[C@H](CCCCN)NC(=O)[C@H](CO)NC(=O)[C@H]([C@@H](C)CC)NC1=O [compound 3] (H-G[S5]FSK[S5]KGKKIKNL[S5]ISK[S5]KG-NH2; staple 2-6, 15-19)
[1]
  IC50 at 90 min: 119 µg/mL (≈ 50.4 µM)
[2]
  IC50 at 48 hours: 57 µg/mL (≈ 24.1 µM)

## CC[C@H](C)[C@H](NC(=O)[C@H](CCCCN)NC(=O)[C@H](CCCCN)NC(=O)CNC(=O)[C@H](CCCCN)NC(=O)[C@]1(C)CCCC=CCCC[C@](C)(NC(=O)CN)C(=O)N[C@@H](Cc2ccccc2)C(=O)N[C@@H](CO)C(=O)N[C@@H](CCCCN)C(=O)N1)C(=O)N[C@@H](CCCCN)C(=O)N[C@@H](CC(N)=O)C(=O)N[C@@H](CC(C)C)C(=O)N[C@@]1(C)CCCC=CCCC[C@@](C)(C(=O)N[C@@H](CCCCN)C(=O)N[C@@H](CCCCN)C(N)=O)NC(=O)CNC(=O)[C@H](CO)NC(=O)[C@H]([C@@H](C)CC)NC1=O [compound 4] (H-G[S5]FSK[S5]KGKKIKNL[S5]ISG[S5]KK-NH2; staple 2-6, 15-19)
[1]
  IC50 at 90 min: 34 µg/mL (≈ 14.4 µM)
[2]
  IC50 at 48 hours: 24 µg/mL (≈ 10.2 µM)

## CC[C@H](C)[C@H](NC(=O)[C@H](CCCCN)NC(=O)[C@H](CCCCN)NC(=O)CNC(=O)[C@H](CCCCN)NC(=O)[C@]1(C)CCCC=CCCC[C@](C)(NC(=O)CN)C(=O)N[C@@H](CCCCN)C(=O)N[C@@H](CO)C(=O)N[C@@H](CCCCN)C(=O)N1)C(=O)N[C@@H](CCCCN)C(=O)N[C@@H](CC(N)=O)C(=O)N[C@@H](CC(C)C)C(=O)N[C@@]1(C)CCCC=CCCC[C@@](C)(C(=O)N[C@@H](CCCCN)C(=O)NCC(N)=O)NC(=O)[C@H](CCCCN)NC(=O)[C@H](CO)NC(=O)[C@H]([C@@H](C)CC)NC1=O [compound 5] (H-G[S5]KSK[S5]KGKKIKNL[S5]ISK[S5]KG-NH2; staple 2-6, 15-19)
[1]
  IC50 at 90 min: 180 µg/mL (≈ 76.9 µM)
[2]
  IC50 at 48 hours: 100 µg/mL (≈ 42.7 µM)

## CC[C@H](C)[C@H](NC(=O)[C@H](CCCCN)NC(=O)[C@H](CCCCN)NC(=O)CNC(=O)[C@H](CCCCN)NC(=O)[C@]1(C)CCCC=CCCC[C@](C)(NC(=O)CN)C(=O)N[C@@H](CCCCN)C(=O)N[C@@H](C(C)C)C(=O)N[C@@H](CCCCN)C(=O)N1)C(=O)N[C@@H](CCCCN)C(=O)N[C@@H](CC(N)=O)C(=O)N[C@@H](CC(C)C)C(=O)N[C@@]1(C)CCCC=CCCC[C@@](C)(C(=O)N[C@@H](CCCCN)C(=O)NCC(N)=O)NC(=O)CNC(=O)[C@H](CO)NC(=O)[C@H]([C@@H](C)CC)NC1=O [compound 6] (H-G[S5]KVK[S5]KGKKIKNL[S5]ISG[S5]KG-NH2; staple 2-6, 15-19)
[1]
  IC50 at 90 min: 215 µg/mL (≈ 94.2 µM)
[2]
  IC50 at 48 hours: 200 µg/mL (≈ 87.6 µM)

## CC[C@H](C)[C@H](NC(=O)[C@H](CCCCN)NC(=O)[C@H](CCCCN)NC(=O)[C@@H](NC(=O)[C@H](CCCCN)NC(=O)[C@]1(C)CCCC=CCCC[C@](C)(NC(=O)CN)C(=O)N[C@@H](CCCCN)C(=O)N[C@@H](CO)C(=O)N[C@@H](CCCCN)C(=O)N1)C(C)C)C(=O)N[C@@H](CCCCN)C(=O)N[C@@H](CC(N)=O)C(=O)N[C@@H](CC(C)C)C(=O)N[C@@]1(C)CCCC=CCCC[C@@](C)(C(=O)N[C@@H](CCCCN)C(=O)NCC(N)=O)NC(=O)CNC(=O)[C@H](CO)NC(=O)[C@H]([C@@H](C)CC)NC1=O [compound 7] (H-G[S5]KSK[S5]KVKKIKNL[S5]ISG[S5]KG-NH2; staple 2-6, 15-19)
[1]
  IC50 at 90 min: 191 µg/mL (≈ 82.6 µM)
[2]
  IC50 at 48 hours: 72 µg/mL (≈ 31.1 µM)

## CC[C@H](C)[C@@H]1NC(=O)[C@@](C)(NC(=O)[C@H](CC(C)C)NC(=O)[C@H](CC(N)=O)NC(=O)[C@H](CCCCN)NC(=O)[C@@H](NC(=O)[C@H](CCCCN)NC(=O)[C@H](CCCCN)NC(=O)CNC(=O)[C@H](CCCCN)NC(=O)[C@]2(C)CCCC=CCCC[C@](C)(NC(=O)CN)C(=O)N[C@@H](CCCCN)C(=O)N[C@@H](CO)C(=O)N[C@@H](CCCCN)C(=O)N2)C(C)C)CCCC=CCCC[C@@](C)(C(=O)N[C@@H](CCCCN)C(=O)NCC(N)=O)NC(=O)CNC(=O)[C@H](CO)NC1=O [compound 8] (H-G[S5]KSK[S5]KGKKVKNL[S5]ISG[S5]KG-NH2; staple 2-6, 15-19)
[1]
  IC50 at 90 min: > 200 µg/mL
[2]
  IC50 at 48 hours: > 200 µg/mL

## CC[C@H](C)[C@@H]1NC(=O)[C@@](C)(NC(=O)[C@H](CC(C)C)NC(=O)[C@H](CC(N)=O)NC(=O)[C@H](CCCCN)NC(=O)[C@H](CC(C)C)NC(=O)[C@H](CCCCN)NC(=O)[C@H](CCCCN)NC(=O)CNC(=O)[C@H](C)NC(=O)[C@]2(C)CCCC=CCCC[C@](C)(NC(=O)CN)C(=O)N[C@@H](CCCCN)C(=O)N[C@@H](CO)C(=O)N[C@@H](CCCCN)C(=O)N2)CCCC=CCCC[C@@](C)(C(=O)N[C@@H](CCCCN)C(=O)N[C@@H](CC(N)=O)C(N)=O)NC(=O)CNC(=O)[C@H](CO)NC1=O [compound 9] (H-G[S5]KSK[S5]AGKKLKNL[S5]ISG[S5]KN-NH2; staple 2-6, 15-19)
[1]
  IC50 at 90 min: 184 µg/mL (≈ 81 µM)
[2]
  IC50 at 48 hours: 107 µg/mL (≈ 47.1 µM)

## CC[C@H](C)[C@H](NC(=O)[C@H](CCCCN)NC(=O)[C@H](CCCCN)NC(=O)CNC(=O)[C@H](C)NC(=O)[C@]1(C)CCCC=CCCC[C@](C)(NC(=O)CN)C(=O)N[C@@H](Cc2ccccc2)C(=O)N[C@@H](CO)C(=O)N[C@@H](CCCCN)C(=O)N1)C(=O)N[C@@H](CCCCN)C(=O)N[C@@H](CC(N)=O)C(=O)N[C@@H](CC(C)C)C(=O)N[C@@]1(C)CCCC=CCCC[C@@](C)(C(=O)N[C@@H](CCCCN)C(=O)N[C@@H](CC(N)=O)C(N)=O)NC(=O)CNC(=O)[C@H](CO)NC(=O)[C@H]([C@@H](C)CC)NC1=O [compound 10] (H-G[S5]FSK[S5]AGKKIKNL[S5]ISG[S5]KN-NH2; staple 2-6, 15-19)
[1]
  IC50 at 90 min: 18 µg/mL (≈ 7.86 µM)
[2]
  IC50 at 48 hours: 16 µg/mL (≈ 6.99 µM)

## CC[C@H](C)[C@H](NC(=O)[C@H](CCCCN)NC(=O)[C@H](CCCCN)NC(=O)CNC(=O)[C@H](C)NC(=O)[C@]1(C)CCCC=CCCC[C@](C)(NC(=O)CN)C(=O)N[C@@H](CCCCN)C(=O)N[C@@H](CO)C(=O)N[C@@H](CCCCN)C(=O)N1)C(=O)N[C@@H](CCCCN)C(=O)N[C@@H](CC(N)=O)C(=O)N[C@@H](CC(C)C)C(=O)N[C@@]1(C)CCCC=CCCC[C@@](C)(C(=O)N[C@@H](CCCCN)C(=O)N[C@@H](CC(N)=O)C(N)=O)NC(=O)CNC(=O)[C@H](CO)NC(=O)[C@H]([C@@H](C)CC)NC1=O [compound 11] (H-G[S5]KSK[S5]AGKKIKNL[S5]ISG[S5]KN-NH2; staple 2-6, 15-19)
[1]
  IC50 at 90 min: 186 µg/mL (≈ 81.9 µM)
[2]
  IC50 at 48 hours: 125 µg/mL (≈ 55 µM)

## CC[C@H](C)[C@@H]1NC(=O)[C@@](C)(NC(=O)[C@H](CC(C)C)NC(=O)[C@H](CC(N)=O)NC(=O)[C@H](CCCCN)NC(=O)[C@H](CC(C)C)NC(=O)[C@H](CCCCN)NC(=O)[C@H](CCCCN)NC(=O)CNC(=O)[C@H](C)NC(=O)[C@]2(C)CCCC=CCCC[C@](C)(NC(=O)CN)C(=O)N[C@@H](CCCCN)C(=O)N[C@@H](CO)C(=O)N[C@@H](CCCCN)C(=O)N2)CCCC=CCCC[C@@](C)(C(=O)N[C@@H](CCCCN)C(=O)NCC(N)=O)NC(=O)CNC(=O)[C@H](CO)NC1=O [compound 12] (H-G[S5]KSK[S5]AGKKLKNL[S5]ISG[S5]KG-NH2; staple 2-6, 15-19)
[1]
  IC50 at 90 min: > 200 µg/mL
[2]
  IC50 at 48 hours: 91 µg/mL (≈ 41.1 µM)

## CC[C@H](C)[C@@H]1NC(=O)[C@@](C)(NC(=O)[C@H](CC(C)C)NC(=O)[C@H](CC(N)=O)NC(=O)[C@H](CCCCN)NC(=O)[C@H](Cc2ccc(C(C)(C)C)cc2)NC(=O)[C@H](CCCCN)NC(=O)[C@H](CCCCN)NC(=O)CNC(=O)[C@H](CCCCN)NC(=O)[C@]2(C)CCCC=CCCC[C@](C)(NC(=O)CN)C(=O)N[C@@H](CCCCN)C(=O)N[C@@H](CO)C(=O)N[C@@H](CCCCN)C(=O)N2)CCCC=CCCC[C@@](C)(C(=O)N[C@@H](CCCCN)C(=O)N[C@@H](CC(N)=O)C(N)=O)NC(=O)CNC(=O)[C@H](CO)NC1=O [compound 18] (H-G[S5]KSK[S5]KGKK[Phe(4-tBu)]KNL[S5]ISG[S5]KN-NH2; staple 2-6, 15-19)
[2]
  IC50 at 48 hours: 21 µg/mL (≈ 8.68 µM)
